# Results taken from PMC10035370, “Targeting Tumor Angiogenesis with the Selective VEGFR-3 Inhibitor EVT801 in Combination with Cancer Immunotherapy” (Cancer Research Communications, 2022).
# Like-named read-outs stand apart in the source and are kept apart here.
# Assays:
# [1] = biological target: T1, VEGFR-3 (Mus musculus, UniProt P35917); assay: Cellular VEGFR-3 autophosphorylation assay, mouse receptor; assay type: cell-based; conditions: read-out: IC50 in cellular assays, VEGFR-3 autophosphorylation, mouse receptor
# T1 construct: expressed in transfected cells; host or cells: HEK293T (inferred from the general description of the cellular assay)
# T1 sequence (P35917 25-1363): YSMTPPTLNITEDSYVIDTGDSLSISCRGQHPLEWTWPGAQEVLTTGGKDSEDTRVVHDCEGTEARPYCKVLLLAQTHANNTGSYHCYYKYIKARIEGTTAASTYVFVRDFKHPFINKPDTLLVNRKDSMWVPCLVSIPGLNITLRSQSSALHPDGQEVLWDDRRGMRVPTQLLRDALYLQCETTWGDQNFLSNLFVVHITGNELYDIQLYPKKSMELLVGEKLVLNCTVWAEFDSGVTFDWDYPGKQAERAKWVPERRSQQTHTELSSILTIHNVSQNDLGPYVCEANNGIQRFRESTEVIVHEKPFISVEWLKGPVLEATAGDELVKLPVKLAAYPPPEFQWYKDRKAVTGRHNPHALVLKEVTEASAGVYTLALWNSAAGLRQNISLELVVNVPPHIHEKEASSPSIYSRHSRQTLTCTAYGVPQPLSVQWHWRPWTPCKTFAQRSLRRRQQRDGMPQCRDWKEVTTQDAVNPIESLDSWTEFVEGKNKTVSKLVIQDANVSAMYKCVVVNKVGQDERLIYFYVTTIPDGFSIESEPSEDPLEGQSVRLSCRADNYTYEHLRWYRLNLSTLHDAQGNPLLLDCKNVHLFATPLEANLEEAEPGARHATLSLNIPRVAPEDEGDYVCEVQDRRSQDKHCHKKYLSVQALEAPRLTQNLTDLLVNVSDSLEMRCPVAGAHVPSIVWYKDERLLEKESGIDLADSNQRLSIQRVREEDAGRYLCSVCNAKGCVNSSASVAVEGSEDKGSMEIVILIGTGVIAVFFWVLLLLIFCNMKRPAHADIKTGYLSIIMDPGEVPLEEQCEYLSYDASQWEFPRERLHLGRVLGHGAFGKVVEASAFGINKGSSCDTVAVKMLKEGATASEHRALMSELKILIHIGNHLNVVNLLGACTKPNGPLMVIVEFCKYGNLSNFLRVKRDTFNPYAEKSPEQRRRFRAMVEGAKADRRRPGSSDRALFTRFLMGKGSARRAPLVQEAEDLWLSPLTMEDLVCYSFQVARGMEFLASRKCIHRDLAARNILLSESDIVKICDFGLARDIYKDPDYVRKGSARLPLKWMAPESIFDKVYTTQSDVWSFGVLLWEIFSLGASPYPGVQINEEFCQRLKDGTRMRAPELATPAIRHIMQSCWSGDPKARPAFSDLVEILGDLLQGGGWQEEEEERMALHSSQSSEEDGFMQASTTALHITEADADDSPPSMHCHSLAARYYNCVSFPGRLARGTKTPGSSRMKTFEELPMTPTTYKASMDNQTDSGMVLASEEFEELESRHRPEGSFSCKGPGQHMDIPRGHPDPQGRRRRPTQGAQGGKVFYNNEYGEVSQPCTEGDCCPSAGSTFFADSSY
# Procedure: (§1) Transfection of HEK293T cells and Ba/F3 cells with VEGFR-1-Flag, VEGFR-2-Flag or VEGFR-3-Flag expression constructs was performed using Fugene-6 (Roche) as per manufacturer’s protocol. Briefly, Fugene-6 was pre-incubated with Opti-Mem (Gibco) before adding DNA. After 24 h, media was replaced with serum-free culture media containing 0.2 % BSA. On the next day, cells were incubated for 1 h in 1 mM orthovanadate, harvested, dissociated and distributed at 4 x 10^5 cells in 5 mL for HEK-VEGFR-1 and HEK-VEGFR-3, and 5 x 10^4 cells per 5 mL for HEK VEGFR-2 in the presence of EVT801 or SAR401849. After 30 min, the reaction was stopped by the addition of cold PBS supplemented with 1 mM orthovanadate. Cells were then lysed with 150 μl of RIPA buffer for 15 min at 4°C, then centrifuged for 10 min at 10,000 g. Supernatants (75 μl) were distributed in duplicate on 96 well plates that were precoated with the anti-flag, and left for 1 h at room temperature. After 3 washes, the anti-phosphotyrosine conjugated to the HRP was added and incubated for 1 h at room temperature. Wells were then washed 3 times with TBS buffer containing 0.5 % Tween-20 and 2 mM MgCl2. The reaction was stopped with 50 μL of 2 N H2SO4, and the signal was read with Envision at the wavelengths of 485 nm and 530 nm.
# [2] = tested on: hLMVEC; assay: Growth factor-induced hLMVEC proliferation; assay type: cell-based, human; conditions: for IC50: Homo sapiens
# Procedure: hLMVEC were seeded in white cell culture-treated flat and clear bottom multi-well plates and incubated at 37 °C overnight, before compounds were added. After incubation for 72 h at 37 °C, plates were equilibrated to ambient temperature for 1 h, and CellTiterGlo reagent (Promega) was added. After approximately 1h, luminescence was measured using a luminometer. Curves were fitted via sigmoidal dose response curves, and IC50 values were determined.
# [3] = tested on: RT-HAM-001 tumors; assay: RT-001-HAM subcutaneous patient-derived xenograft tumor mouse model; assay type: in vivo, mice; conditions: 30 mg/kg twice per day, 7-day treatment
# Procedure: Patient-derived tumors of the same passage were transplanted subcutaneously outbred athymic (nu/nu) female HSD mice. When tumor volume reached 726 to 1,437 mm^3, 4 donor mice were sacrificed by cervical dislocation, and tumors were aseptically excised and dissected. After removing necrotic areas, tumor fragments of approximately 20 mm^3 were transferred to culture medium before grafting. A total of 108 mice were anesthetized with 100 mg/kg ketamine hydrochloride (Virbac) and 10 mg/kg xylazine (Bayer). Then, a tumor fragment was placed in the subcutaneous tissue of an incision at the level of the interscapular region as described previously ([30]). All mice from the same experiment were implanted on the same day. A total of 54 mice with RT-001-HAM established growing tumor (P6.0.0/0) between 62.5 and 196 mm^3 were allocated according to tumor volume, ensuring homogenous median and mean tumor volume in each treatment arm. Treatments with 5 mL/kg vehicle, 30 mg/kg EVT801, or 30 mg/kg pazopanib started 15 days after tumor implantation and continued twice per day until termination 7 days later. Tumor volumes were measured via a caliper three times a week during the treatment period. All animals were weighed at the same time as tumor size measurement. Plasma and fresh tumor samples were collected at different timepoints after final dose at day 7 from all mice.
# [4] = tested on: DEN-induced liver tumor; assay: N-diethylnitrosamine-induced hepatocarcinoma mouse model; assay type: in vivo, mice; conditions: daily doses of 100 mg/kg for 2 months
# Procedure: After weighing, 38 male C3/H mice received a 10 mg/kg dose of N-diethylnitrosamine (DEN) intraperitoneally, whereas a group of 5 animals was kept without DEN injection as control group. After 12 months, mice that received DEN injection were randomized by weight in two groups of each 19 animals. The mice were dosed daily orally for 2 months either with EVT801 or vehicle. On the day of termination, mice treated with EVT801 received a last dose of 30 mg/kg to take blood and tumor samples for compound concentration determination. After incision of the peritoneal cavity, blood was taken from the vena cava. Following excision and weighing of the liver, the number of tumors per liver was counted. The tumor burden was calculated as the sum of individual tumor volumes for each mouse. No blood sampling was performed on control and vehicle groups. Plasma and tumor samples were stored at −20°C until analysis. Concentration of EVT801 was determined by LC/MS-MS.
# [5] = tested on: Rip1-Tag2 tumors; assay: Rip1-Tag2 transgenic mouse model; assay type: in vivo, mice
# Procedure: The Rip1-Tag2/transgenic mouse models were used as reported previously ([29]). Briefly, treatment of mice started at the age of 12 weeks. Mice were treated daily for 16 days, and volume of each tumor was measured and calculated as described for the 4T1 mammary carcinoma mouse model below. The tumor burden was calculated as the sum of individual tumor volumes for each mouse. For the survival study, daily treatment started at the age of 12 weeks, and mice were monitored daily to detect moribund mice for euthanasia. CD31-positive vessel density within the tumors were quantified by density index (1 vessel/mm^2) measured using the Definiens software. Individual density indices were plotted as the mean ± SD for each group. Statistical significance was assessed by Kruskall–Wallis followed by Dunnet multiple comparison test.
# [6] = biological target: VEGFR-2 (Homo sapiens, UniProt P35968); assay: Cellular autophosphorylation assay, HEK293 cells transiently expressing VEGFR-2; assay type: cell-based; design: expressed in transfected cells; host or cells: HEK293T; conditions: read-out: IC50 in cellular assays, VEGFR-2 autophosphorylation
# Sequence of VEGFR-2 (P35968 20-1356): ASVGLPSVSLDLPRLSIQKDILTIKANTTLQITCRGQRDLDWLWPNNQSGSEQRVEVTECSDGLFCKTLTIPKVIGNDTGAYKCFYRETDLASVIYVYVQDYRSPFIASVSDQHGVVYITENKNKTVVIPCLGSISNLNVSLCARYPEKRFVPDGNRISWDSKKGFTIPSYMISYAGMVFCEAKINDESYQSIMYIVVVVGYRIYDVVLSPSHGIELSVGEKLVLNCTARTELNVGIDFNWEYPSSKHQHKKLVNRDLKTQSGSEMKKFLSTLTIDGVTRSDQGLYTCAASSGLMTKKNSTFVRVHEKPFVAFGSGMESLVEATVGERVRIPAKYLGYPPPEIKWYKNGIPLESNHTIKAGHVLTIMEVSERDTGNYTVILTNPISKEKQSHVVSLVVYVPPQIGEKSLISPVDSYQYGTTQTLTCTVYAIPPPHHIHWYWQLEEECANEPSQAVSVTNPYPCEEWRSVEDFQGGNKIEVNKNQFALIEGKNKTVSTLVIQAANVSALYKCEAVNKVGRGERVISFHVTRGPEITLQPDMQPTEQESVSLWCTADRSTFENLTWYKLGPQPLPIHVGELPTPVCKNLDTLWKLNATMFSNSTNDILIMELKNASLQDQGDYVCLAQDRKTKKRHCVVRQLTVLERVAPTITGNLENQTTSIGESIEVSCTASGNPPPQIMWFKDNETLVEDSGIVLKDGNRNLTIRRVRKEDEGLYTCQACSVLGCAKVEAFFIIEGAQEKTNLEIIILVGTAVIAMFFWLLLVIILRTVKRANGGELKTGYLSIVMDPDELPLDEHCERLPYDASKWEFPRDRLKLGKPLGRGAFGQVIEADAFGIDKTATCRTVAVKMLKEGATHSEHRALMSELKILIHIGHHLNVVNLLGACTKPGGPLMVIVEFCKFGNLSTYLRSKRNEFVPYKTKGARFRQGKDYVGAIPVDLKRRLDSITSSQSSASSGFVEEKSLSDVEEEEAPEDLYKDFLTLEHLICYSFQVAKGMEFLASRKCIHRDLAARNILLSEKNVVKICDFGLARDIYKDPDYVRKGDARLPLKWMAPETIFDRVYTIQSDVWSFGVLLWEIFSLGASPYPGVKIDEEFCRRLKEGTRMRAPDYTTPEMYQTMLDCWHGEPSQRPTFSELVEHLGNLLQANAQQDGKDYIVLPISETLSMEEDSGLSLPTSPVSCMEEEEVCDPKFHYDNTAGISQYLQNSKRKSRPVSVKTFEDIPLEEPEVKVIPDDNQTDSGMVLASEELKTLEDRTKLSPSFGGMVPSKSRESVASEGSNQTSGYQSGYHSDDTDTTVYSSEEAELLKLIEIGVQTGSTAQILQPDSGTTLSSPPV
# Procedure: as §1
compound,measurement,setting,value
CCn1c(N)c(-c2ncc[nH]2)c(=O)c2ccc(C#C[C@@](C)(O)COC)nc21 [EVT801],IC50,[1],151 nM
same,IC50,"[2]; read-out: IC50, inhibition of VEGF-A-induced hLMVEC proliferation",155 nM
same,IC50,"[2]; read-out: IC50, inhibition of VEGF-C-induced hLMVEC proliferation",15 nM
same,IC50,"[2]; read-out: IC50, inhibition of VEGF-D-induced hLMVEC proliferation",8 nM
same,maximum inhibition of VEGF-A-induced hLMVEC proliferation,[2]; VEGF-A,65%
same,maximum inhibition of VEGF-C-induced hLMVEC proliferation,[2]; VEGF-C,74%
same,maximum inhibition of VEGF-D-induced hLMVEC proliferation,[2]; VEGF-D,100%
same,"T/C ratio, tumor volume",[3],41%
same,size of necrotic areas in tumors,[3],decreased
same,hypoxic areas (CAIX) in tumors,[3]; not statistically significant,appeared to decrease hypoxia in half of the tumors
same,"T/C ratio, tumor volume",[4],22%
same,liver weight,[4],fully prevented the increase in liver weight
same,"T/C ratio, tumor volume","[5]; 30 mg/kg/day, 2 weeks",63%
same,average number of tumors per pancreas,"[5]; 30 mg/kg/day, 2 weeks",three
same,reduction in tumor volume,"[5]; 30 mg/kg/day, 2 weeks",37%
same,reduction of number of pancreatic tumors,"[5]; 30 mg/kg/day, 2 weeks",67%
same,"T/C ratio, tumor volume","[5]; 100 mg/kg/day, 2 weeks",16%
same,reduction of number of pancreatic tumors,"[5]; 100 mg/kg/day, 2 weeks",91%
same,overall survival of the mice,[5]; 30 and 100 mg/kg/day,dose-dependently increased
same,IC50,[6],260 nM
